Results published in patent publication US8048926B2, “L-DOPA amide derivatives and uses thereof” (Yissum Research Development Company of the Hebrew …, priority 2003, dated 2011).
Several values for one entry are separate records, joined by “and”; a condition that tells them apart may be missing. Identical values can stand only once.

What was measured:
[1] = tested on: unilaterally 6-hydroxydopamine-lesioned male rats; assay: Rotation experiments (rotometer), LDA administered intraperitoneally; assay type: in vivo, rat
Protocol: (§1) The in vivo activity of LDA administered intravenously (iv) and intraperitoneally (ip) was evaluated using rotations experiments, conducted and based in accordance with published studies, as follows:
(§2) Briefly, Dunnet's experiment uses PD induced animal models which are treated with a unilateral lesion to the brain that effects their motorial behavior. In case of rats, they turn away from the side of the lesion when treated with an agent which increases the dopamine brain level. In order to quantify this effect, a device called rotometer is used, which records the circling behavior of the tested rat by counting the number of clockwise (CW) and counter clockwise (CCW) rotations the animal is turning in a hemisphere-shaped bowl which encourages a circling behavior.
(§3) Thus, twenty unilaterally 2,4,5-trihydroxyphenethylamine (6-hydroxydopamine)-lesioned male rats, weighing about 300 grams (obtained from Harlan, Rehovoth Israel) were treated with LDA and carbidopa, as is detailed hereinbelow. […] Pharmacol Toxicol. 93(2):66-70].
(§4) Treatment was performed by intravenously or intraperitoneally administering the LDA.
Intraperitoneal Experiments: Four rats were treated with 6-hydroxydopamine (8 μg/rat). Rats were then administered with carbidopa (4 mg/kg i.p), and 15 minutes thereafter with 15 mg/kg LDA, administered intraperitoneally. Immediately after LDA injection the rotometer was activated and the rats were monitored during 3 hours.

[2] = tested on: unilaterally 6-hydroxydopamine-lesioned male rats; assay: Rotation experiments (rotometer), LDA administered intravenously; assay type: in vivo, rat; details: for CCW (counter clockwise rotations) / CW (clockwise rotations) / CW − CCW: carbidopa 4 mg/kg ip 15 minutes before, one line per rat, preliminary
Protocol: as §1, §2, §3, §4
Intravenous (iv) Experiments: Rats were intravenously injected with 24 mg/kg or 40 mg/kg LDA. All rats received 4 mg/kg carbidopa, intraperitoneally, 15 minutes before LDA administration.

DOPA decarboxylase = target: T1, DOPA decarboxylase (Mus musculus, UniProt O88533); assay: DOPA-decarboxylase assay (substrate test); assay type: biochemical; parameters: activity of DOPA decarboxylase with the substance as substrate: unit not given here; details: mouse striatum enzyme
T1 construct: using the mouse striatum as a source of the decarboxylase enzyme; from tissue; host or cells: mouse striatum
T1 sequence (O88533 1-480): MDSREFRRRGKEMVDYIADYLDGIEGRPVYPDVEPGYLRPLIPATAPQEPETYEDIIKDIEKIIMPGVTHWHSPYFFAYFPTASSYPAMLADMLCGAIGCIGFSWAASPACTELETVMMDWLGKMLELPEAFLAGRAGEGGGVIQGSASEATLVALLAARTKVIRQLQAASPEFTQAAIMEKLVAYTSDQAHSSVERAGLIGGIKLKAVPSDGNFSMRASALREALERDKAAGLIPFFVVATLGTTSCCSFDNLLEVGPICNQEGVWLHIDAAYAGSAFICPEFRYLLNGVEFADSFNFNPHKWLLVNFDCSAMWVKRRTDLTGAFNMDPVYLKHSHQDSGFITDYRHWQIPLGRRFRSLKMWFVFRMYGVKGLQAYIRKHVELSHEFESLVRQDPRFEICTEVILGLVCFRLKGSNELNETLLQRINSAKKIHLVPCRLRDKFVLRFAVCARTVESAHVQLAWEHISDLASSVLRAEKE
Protocol: DOPA-decarboxylase assay: As discussed hereinabove, one of the limitations associated with treatment with L-DOPA is its decarboxylation in the periphery by a DOPA decarboxylase, which reduces the amount the amount of L-DOPA that crosses the BBB.
The assay was carried out according to Hadjiconstantinou et al. [Aromatic L-amino acid decarboxylase activity of mouse striatum is modulated via dopamine receptors. J Neurochem. 1993 June; 60(6):2175-80], using the mouse striatum as a source of the decarboxylase enzyme.
The activity of the DOPA decarboxylase was thus tested with L-DOPA, DOPA-ethyl ester and LDA. L-DOPA ethyl ester (Compound 1), known as a much poorer substrate of the decarboxylase, served as a control was used as a control in these assays.

[3] = cited from earlier work
[4] = cited from earlier work; remark: listed apart in the source
[5] = LDA 15 mg/kg ip, carbidopa 4 mg/kg ip 15 minutes before, monitored during 3 hours, one line per rat, preliminary

substrate of DOPA decarboxylase, in words (DOPA decarboxylase) | activity of DOPA decarboxylase with the substance as substrate (DOPA decarboxylase; Substrate 50 micromoles) | activity of DOPA decarboxylase with the substance as substrate (DOPA decarboxylase; Substrate 100 micromoles) | activity of DOPA decarboxylase with the substance as substrate (DOPA decarboxylase; Substrate 150 micromoles) | activity of DOPA decarboxylase with the substance as substrate (DOPA decarboxylase; Substrate 250 micromoles) | activity of DOPA decarboxylase with the substance as substrate (DOPA decarboxylase; Substrate 500 micromoles) | activity of DOPA decarboxylase with the substance as substrate (DOPA decarboxylase; Substrate 1000 micromoles) | SMILES | water solubility [3] | other results
not a substrate | – | – | – | – | – | – | NC(=O)C(N)Cc1ccc(O)c(O)c1 (stereo not drawn) [LDA, α-amino-3,4-dihydroxy-benzenepropanamide] | – | improving the behavior of lesioned animals ([1]; LDA administered intraperitoneally): highly active; effect of co-administration of carbidopa on the activity of LDA ([2]; increasing relative amount of carbidopa with respect to LDA): positively affect the activity of LDA; duration of the rotation effect ([2]; intravenous LDA together with carbidopa, data not shown): more than 2 hours; activity of the enzyme (formation of dopamine) with the substance as substrate, in words (DOPA decarboxylase; assay performed twice): No activity of the enzyme was detected
– | – | – | – | – | – | – | NC(=O)[C@@H](N)Cc1ccc(O)c(O)c1 [LDA + Carbidopa] | – | CCW (counter clockwise rotations) [1, 5]: 22 and 50 and 74 and 109; CW (clockwise rotations) [1, 5]: 56 and 361 and 123 and 111; CW − CCW [1, 5]: 34 and 311 and 49 and 2; CCW (counter clockwise rotations) ([2]; LDA 24 mg/kg iv): 128 and 134; CW (clockwise rotations) ([2]; LDA 24 mg/kg iv): 686 and 629; CW − CCW ([2]; LDA 24 mg/kg iv): 558 and 495; CCW (counter clockwise rotations) ([2]; LDA 40 mg/kg iv): 724 and 14 and 59; CW (clockwise rotations) ([2]; LDA 40 mg/kg iv): 1563 and 970 and 573; CW − CCW ([2]; LDA 40 mg/kg iv): 839 and 956 and 514
poor substrate | 227 | 278 | 328 | 371 | 357 | 350 | CCOC(=O)[C@@H](N)Cc1ccc(O)c(O)c1 [Compound 1, L-DOPA ethyl ester] | highly water-soluble | hydrolysis to L-DOPA before reaching the brain ([4]; in vivo): fast hydrolysis
– | 3241 | 3839 | 3828 | 4332 | 4612 | 3933 | N[C@@H](Cc1ccc(O)c(O)c1)C(=O)O [L-DOPA, 3,4-dihydroxy-L-phenylalanine] | poor water solubility | share of administered levodopa that enters the brain unaltered ([4]; peripheral administration): 1-3%
